Data published in patent publication US20190151283A1, “NON-STEROIDAL SELECTIVE GLUCOCORTICOID RECEPTOR AGONISTIC MODULATORS (SEGRAMs) AND USES THEREOF” (ASSOCIATION POUR LA RECHERCHE À L'IGBMC (ARI), priority 2017, published 2019).

How the values were obtained:
Balb/C mouse ears [1] = assay: Calcipotriol (MC 903)-induced atopic dermatitis-like inflammation; format: in vivo; settings: for MC 903-induced ear skin inflammation, histological analysis: compared to the control; for MC 903-induced transcription of pro-inflammatory genes (MMP13, COX2, IL-1β, IL-6, IL-10, IL-13 and TSLP): ear extracts, q-RT-PCR, D23; for expression of the TSLP lymphokine in MC 903-treated mouse epidermis: immunohistochemistry, data not shown; for MC 903-induced skin inflammation: topical, 8 days co-treatment with MC 903
Protocol: To investigate the CpdX anti-inflammatory activity in vivo, Balb/C mouse ears were topically treated with calcipotriol (MC 903, a vitamin D3 analogue), in order to induce an atopic dermatitis (AD)-like inflammation (Li et al., 2006. Proc Natl Acad Sci USA. 103[…].
Mice were treated for 14 days with MC 903, and then for 8 extra days (until D22) with either MC 903 alone (control), MC 903 and Dex, MC 903 and CpdX, MC 903 and CpdX(eA), MC 903 and CpdX(eB), MC 903 and CpdX-D3, MC 903 and CpdX-D3(eA) and MC 903 and CpdX-D3(eB).
At D23, RNA transcripts were extracted from mouse ear skin samples and the transcripts of 7 cytokines (MMP13, COX2, IL-1β, IL-6, IL-10, IL-13 and TSLP) were analyzed by q-RT-PCR. Ear skin was harvested and histological (with H&E staining) and immunohistochemical (with anti-TSLP antibodies) analyses were carried out.

B6 male mice = assay: Body weight and body composition after three-month treatment; format: in vivo, mouse; settings: s.c. 1 mg/kg daily, 3 months, pDEXA
Protocol: B6 male mice (8-week-old) were daily subjected for three months to a subcutaneous injection of either vehicle (NaCl 0.9%), Dex, CpdX or CpdX-D3 (1 mg/kg body weight, diluted in vehicle. A pDEXA machine was used to determine the lean mass and fat mass. The statistical significance was calculated through Krustal-Walis test followed by a Dunn's multiple comparison test, *p<0.05; **p<0.01; ***p<0.001.

Balb/C mouse ears [2] = assay: TPA-induced irritant contact dermatitis-like inflammation; format: in vivo; settings: for TPA-induced ear skin inflammation, histological analysis: compared to the control; for TPA-induced ear skin inflammation, histological analysis / expression of TSLP in TPA-treated mouse epidermis: data not shown; for TPA-induced transcription of pro-inflammatory genes: ear extracts, q-RT-PCR, D10; for expression of TSLP in TPA-treated mouse epidermis: immunochemistry with TSLP-specific antibody; for TPA-induced skin inflammation: topical, 5 days co-treatment with TPA
Protocol: Balb/C mouse ears were topically treated with TPA to induce an “irritant contact dermatitis-like inflammation”.
Mice were treated for 4 days with TPA, then for 5 extra days (until D9) with either vehicle, TPA alone, TPA and Dex, TPA and CpdX or TPA and CpdX-D3.
At D10, RNA transcripts were extracted from mouse ear skin samples and the transcripts of CCL4, COX2, MMP13, IL-1β, IL-6, TNF-α, TSLP, IL-22 and IL-23 were analyzed by q-RT-PCR. Ear skin was harvested, and histological (with H&E staining) and immunohistochemical (with anti-TSLP antibodies) analyses were carried out.

[3] = molecular target: T1, glucocorticoid receptor (GR) (Mus musculus, UniProt P06537); assay: GR transcriptional functions in mouse ears after topical 18-hour treatment (q-RT-PCR); format: in vivo
T1 construct: RNA transcripts were then extracted from mouse ears; from tissue; host or cells: ear skin of Balb/C mice (in vivo topical treatment)
T1 sequence (P06537 1-792): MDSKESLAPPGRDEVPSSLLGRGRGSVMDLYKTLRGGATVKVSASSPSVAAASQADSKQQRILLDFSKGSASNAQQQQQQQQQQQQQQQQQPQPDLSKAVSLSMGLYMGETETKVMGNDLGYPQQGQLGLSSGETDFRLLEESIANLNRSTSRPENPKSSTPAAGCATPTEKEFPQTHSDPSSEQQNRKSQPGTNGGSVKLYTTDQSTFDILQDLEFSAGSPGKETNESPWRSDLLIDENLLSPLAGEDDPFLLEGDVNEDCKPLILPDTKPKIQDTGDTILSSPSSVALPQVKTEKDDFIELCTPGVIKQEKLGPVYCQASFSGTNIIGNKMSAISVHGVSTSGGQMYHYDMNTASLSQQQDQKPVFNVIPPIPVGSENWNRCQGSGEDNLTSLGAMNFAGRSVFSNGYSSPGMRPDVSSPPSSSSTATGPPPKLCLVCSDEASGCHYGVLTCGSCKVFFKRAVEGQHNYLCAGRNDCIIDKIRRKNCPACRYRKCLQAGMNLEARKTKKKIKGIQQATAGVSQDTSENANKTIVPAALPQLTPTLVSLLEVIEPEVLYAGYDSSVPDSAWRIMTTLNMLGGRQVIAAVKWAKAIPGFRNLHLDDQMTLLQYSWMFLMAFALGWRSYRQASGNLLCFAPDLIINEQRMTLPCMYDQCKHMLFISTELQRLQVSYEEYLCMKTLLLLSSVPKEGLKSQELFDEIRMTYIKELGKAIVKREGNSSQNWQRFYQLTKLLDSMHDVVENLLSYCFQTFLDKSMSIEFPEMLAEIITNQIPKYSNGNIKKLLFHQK
Protocol: RNA transcripts were then extracted from mouse ears and the transcripts of 4 genes were analyzed by q-RT-PCR: • (i) the directly GR-transactivated gene of the mTOR inhibitor REDD1, • (ii) the GR-directly transrepressed gene of keratin 5 (K5) and • (iii) the GR-indirectly “tethered” transrepressed genes of interleukin-1β (IL-1β) and interleukin-6 (IL-6), both being activated in presence of 12-O-tetradecanoylphorbol-13-acetate (TPA).

mice = assay: Ovalbumin (OVA)-induced asthma-like allergic lung inflammation; format: in vivo, mouse
Protocol: Glucocorticoids have been (Pearlman et al., 1997. Ann Allergy Asthma Immunol. 78(4):356-62), and are still, widely used in asthma therapy. In order to investigate the possible CpdX anti-inflammatory activity in vivo, mice were sensitized and challenged with either ovalbumin (OVA) or house dust mite (HDM) to induce an asthma-like allergic lung inflammation.
Mice were intraperitoneally sensitized with either 50 μg OVA together with alum or with alum alone on D0, D7 and D14. Mice were then subdivided into three groups, and on D19, D20 and D21, they were intranasally (i.n.) challenged with 10 μg OVA. The first and the second group received intranasally 0.5 mg/kg of body weight of Dex or CpdX respectively, while the third group served as a control.
On D22, the lung allergic inflammation was assessed for each mouse by examination of the bronchoalveolar lavage fluid (BAL). The total BAL cells, eosinophils, neutrophils, macrophages and lymphocytes were counted. RNA transcripts were extracted from lung samples and RNA transcripts of IL-1β, IL-6, IL-4, IL-5, IL-10, IL-13, Eotaxin, CCL4 and TNFα were analyzed by q-RT-PCR. Histological (with H&E staining) and immunohistochemical (with eosinophil-specific and neutrophil-specific antibodies) analyses of lung tissues were also carried out.

[4] = topical 18 h, 1 nmole/cm^2, q-RT-PCR, vs Vehicle

For `[2H]C([2H])([2H])Oc1ccc(F)cc1C(C)(C)CC(O)(CNc1ccc2c(c1)COC2=O)C(F)(F)F` (racemic) [CpdX-D3, 5-{4-[2-(methoxy-D3)-5-fluorophenyl]-2-hydroxy-4-methyl-2-(trifluoro-methyl)pentylamino}isobenzofuran-1(3H)-one], the “MC 903-induced ear skin inflammation, histological analysis” value (Balb/C mouse ears [1]) was “decreased”, the “MC 903-induced transcription of pro-inflammatory genes (MMP13, COX2, IL-1β, IL-6, IL-10, IL-13 and TSLP)” value (Balb/C mouse ears [1]) was “repressed, as efficiently as Dex” and the “expression of the TSLP lymphokine in MC 903-treated mouse epidermis” value (Balb/C mouse ears [1]) was “similarly strongly decreased”. The “MC 903-induced skin inflammation” value (Balb/C mouse ears [1]) was “significantly decreased”, the fat mass (B6 male mice) was “commensurate increase” and the “lean percentage / lean mass” value (B6 male mice) was “commensurate increase”. The “TPA-induced ear skin inflammation, histological analysis” value (Balb/C mouse ears [2]) was “significantly decreased”, the “TPA-induced transcription of pro-inflammatory genes” value (Balb/C mouse ears [2]) was “repressed, as efficiently as Dex” and the “expression of TSLP in TPA-treated mouse epidermis” value (Balb/C mouse ears [2]) was “similarly strongly decreased”. The TPA-induced skin inflammation (Balb/C mouse ears [2]) was “significantly decreased”.

With `COc1ccc(F)cc1C(C)(C)CC(O)(CNc1ccc2c(c1)COC2=O)C(F)(F)F` (racemic) [CpdX, 5-[4-(5-fluoro-2-methoxyphenyl)-2-hydroxy-4-methyl-2-(trifluoromethyl)pentylamino]-isobenzofuran-1(3H)-one] the “GR functions induced (direct transactivation, direct transrepression, indirect tethered transrepression)” value ([3]; in vivo transcriptional analyses, 1 nmole/cm^2) was “selectively exhibits an indirect tethered transrepression activity”, the “direct transrepression of the K5 gene (relative RNA expression)” value [3, 4] was “unchanged” and the “transactivation of the REDD1 gene (relative RNA expression)” value [3, 4] was “unchanged”. The “MC 903-induced ear skin inflammation, histological analysis” value (Balb/C mouse ears [1]) was “decreased”, the “MC 903-induced transcription of pro-inflammatory genes (MMP13, COX2, IL-1β, IL-6, IL-10, IL-13 and TSLP)” value (Balb/C mouse ears [1]) was “repressed, as efficiently as Dex” and the “expression of the TSLP lymphokine in MC 903-treated mouse epidermis” value (Balb/C mouse ears [1]) was “similarly strongly decreased”. For the same molecule, the “MC 903-induced skin inflammation” value (Balb/C mouse ears [1]) was “significantly decreased”, the “eosinophils and neutrophils in lung, immunohistochemistry” value (mice; data not shown) was “similarly decreased” and the “peribronchiolar and perivascular inflammatory cell infiltration” value (mice; histology of lung paraffin sections) was “strongly decreased”. The “number of macrophages in BAL” value (mice; intranasal 0.5 mg/kg on D19-D21, BAL on D22) was “unchanged”, the “total number of BAL cells, eosinophils, neutrophils and lymphocytes” value (mice; intranasal 0.5 mg/kg on D19-D21, BAL on D22, vs control group) was “significantly decreased” and the “expressions of IL-1β, IL-6, IL-4, IL-5, IL-10, IL-13, Eotaxin, CCL4 and TNFα in lung samples” value (mice; q-RT-PCR, D22) was “significantly and similarly decreased”. For the same molecule, the fat mass (B6 male mice) was “commensurate increase”, the “lean percentage / lean mass” value (B6 male mice) was “commensurate increase” and the “TPA-induced ear skin inflammation, histological analysis” value (Balb/C mouse ears [2]) was “significantly decreased”. The “TPA-induced transcription of pro-inflammatory genes” value (Balb/C mouse ears [2]) was “repressed, as efficiently as Dex”, the “expression of TSLP in TPA-treated mouse epidermis” value (Balb/C mouse ears [2]) was “similarly strongly decreased” and the TPA-induced skin inflammation (Balb/C mouse ears [2]) was “significantly decreased”.
